In patent US11339130B1 (Blade Therapeutics, Inc., priority 2016, dated 2022) one finds IC50 data, which are given here for 14 compounds.

One test has as its target T1, Human Calpain 1/NS1 (Homo sapiens, UniProt P07384).
T1 sequence (P07384 1-714): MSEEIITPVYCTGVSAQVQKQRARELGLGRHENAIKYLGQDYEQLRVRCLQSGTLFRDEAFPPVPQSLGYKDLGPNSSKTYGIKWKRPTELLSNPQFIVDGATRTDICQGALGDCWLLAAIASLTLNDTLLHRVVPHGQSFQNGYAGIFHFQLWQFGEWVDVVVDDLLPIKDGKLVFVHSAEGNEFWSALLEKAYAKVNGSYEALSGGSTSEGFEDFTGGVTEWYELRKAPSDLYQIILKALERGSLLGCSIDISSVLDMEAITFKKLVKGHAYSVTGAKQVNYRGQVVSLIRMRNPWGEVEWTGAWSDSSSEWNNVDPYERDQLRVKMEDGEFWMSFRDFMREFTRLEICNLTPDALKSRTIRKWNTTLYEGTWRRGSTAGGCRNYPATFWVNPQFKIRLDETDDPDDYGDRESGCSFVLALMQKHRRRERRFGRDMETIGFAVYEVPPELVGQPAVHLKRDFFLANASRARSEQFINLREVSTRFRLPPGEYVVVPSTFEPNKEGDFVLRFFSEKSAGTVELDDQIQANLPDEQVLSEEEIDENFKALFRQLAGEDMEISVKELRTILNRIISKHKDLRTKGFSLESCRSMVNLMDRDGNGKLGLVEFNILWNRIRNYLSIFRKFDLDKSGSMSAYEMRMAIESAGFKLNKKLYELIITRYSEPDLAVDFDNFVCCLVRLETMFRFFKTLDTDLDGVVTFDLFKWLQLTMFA
T1 sequence (P04632 1-268 partner): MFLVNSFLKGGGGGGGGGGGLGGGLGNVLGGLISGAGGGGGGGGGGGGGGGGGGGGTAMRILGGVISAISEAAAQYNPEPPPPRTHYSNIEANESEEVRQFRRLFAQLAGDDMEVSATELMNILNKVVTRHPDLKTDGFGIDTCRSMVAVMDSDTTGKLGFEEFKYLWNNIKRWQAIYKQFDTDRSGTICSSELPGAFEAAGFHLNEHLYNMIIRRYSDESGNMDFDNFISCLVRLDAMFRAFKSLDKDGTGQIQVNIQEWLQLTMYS
As to the kind of experiment: Calpain inhibition continuous fluorescence (FRET) assay, Human Calpain 1/NS1. The test is classed as biochemical. To be noted: read-out: Human Calpain 1/NS1 IC50. The gist of the method:
(§1)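 Fluorescence increase from the cleaved 5-FAM/QXL 520 substrate, read at 490/520 nm, gave activity. Calcium was supplied with the substrate to activate the enzyme in situ after a 25C enzyme-inhibitor preincubation, and IC50s were fit from initial slopes.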

In a further test the target is T2, Human Calpain 9/NS1 (Homo sapiens, UniProt O14815).
T2 sequence (O14815 1-690): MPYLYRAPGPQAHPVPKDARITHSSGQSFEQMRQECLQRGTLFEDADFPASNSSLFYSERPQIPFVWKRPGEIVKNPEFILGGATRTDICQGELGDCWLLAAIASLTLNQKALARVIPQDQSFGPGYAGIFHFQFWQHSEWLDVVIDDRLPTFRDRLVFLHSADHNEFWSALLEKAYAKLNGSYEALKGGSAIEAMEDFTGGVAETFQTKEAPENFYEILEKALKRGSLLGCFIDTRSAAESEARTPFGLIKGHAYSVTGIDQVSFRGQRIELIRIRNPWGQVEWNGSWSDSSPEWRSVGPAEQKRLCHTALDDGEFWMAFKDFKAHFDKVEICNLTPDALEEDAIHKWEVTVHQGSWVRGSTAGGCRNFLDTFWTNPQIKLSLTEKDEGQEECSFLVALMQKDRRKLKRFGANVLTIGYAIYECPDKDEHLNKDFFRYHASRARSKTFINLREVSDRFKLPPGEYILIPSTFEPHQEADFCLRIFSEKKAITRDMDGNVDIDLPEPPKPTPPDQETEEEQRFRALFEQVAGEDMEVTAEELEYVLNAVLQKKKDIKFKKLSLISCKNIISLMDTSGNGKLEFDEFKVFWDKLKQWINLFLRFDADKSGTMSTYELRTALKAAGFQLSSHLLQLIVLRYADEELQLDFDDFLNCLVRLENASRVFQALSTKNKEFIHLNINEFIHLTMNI
T2 sequence (P04632 1-268 partner): T1 sequence (P04632 1-268 partner)
Put plainly: Calpain inhibition continuous fluorescence (FRET) assay, Human Calpain 9/NS1. The test is classed as biochemical. To be noted: read-out: Human Calpain 9/NS1 IC50. The gist of the method:
as §1

The next test has as its target T3, Human Calpain 2/NS1 (Homo sapiens, UniProt P17655).
T3 sequence (P17655 1-700): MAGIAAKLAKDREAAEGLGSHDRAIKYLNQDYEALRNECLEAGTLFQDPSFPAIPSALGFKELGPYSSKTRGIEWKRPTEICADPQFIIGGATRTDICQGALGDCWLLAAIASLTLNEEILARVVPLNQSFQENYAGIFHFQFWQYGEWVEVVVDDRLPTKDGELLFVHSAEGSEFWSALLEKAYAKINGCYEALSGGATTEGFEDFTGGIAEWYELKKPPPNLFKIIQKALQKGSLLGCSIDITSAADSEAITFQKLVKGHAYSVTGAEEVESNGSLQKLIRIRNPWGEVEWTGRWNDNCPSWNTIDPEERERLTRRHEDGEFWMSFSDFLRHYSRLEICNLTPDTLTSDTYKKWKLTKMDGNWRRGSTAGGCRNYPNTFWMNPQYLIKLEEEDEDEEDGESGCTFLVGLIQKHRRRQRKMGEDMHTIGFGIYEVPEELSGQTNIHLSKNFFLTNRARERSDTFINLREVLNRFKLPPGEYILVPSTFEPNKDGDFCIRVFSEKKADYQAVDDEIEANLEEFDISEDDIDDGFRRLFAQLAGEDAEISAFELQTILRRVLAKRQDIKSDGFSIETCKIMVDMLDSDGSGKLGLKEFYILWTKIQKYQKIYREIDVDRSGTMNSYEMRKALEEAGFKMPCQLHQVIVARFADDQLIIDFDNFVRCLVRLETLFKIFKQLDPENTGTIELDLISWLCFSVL
T3 sequence (P04632 1-268 partner): T1 sequence (P04632 1-268 partner)
Put plainly: Calpain inhibition continuous fluorescence (FRET) assay, Human Calpain 2/NS1. The test is classed as biochemical. To be noted: read-out: Human Calpain 2/NS1 IC50. The gist of the method:
as §1

For test [1], the system named is Calpain activity in SH-SY5Y cells (SBDP-150). As to the kind of experiment: SH-SY5Y Spectrin western blot assay (SBDP-150 breakdown product, A23187-induced). The test is classed as cell-based. To be noted: Homo sapiens; Column D; SH-SY5Y cells, A23187-induced SBDP-150; read-out: SH-SY5Y Spectrin IC50. On the technique in general: In western blotting, separated proteins are transferred to a membrane and probed.

The subject of test [2] is Calpain activity in SH-SY5Y cells. As to the kind of experiment: SH-SY5Y + AMC fluorescence assay (Suc-LLVY-AMC substrate). To be noted: read-out: SH-SY5Y + AMC IC50. The test is classed as cell-based.

Like-named read-outs stand apart in the source and are kept apart here. A value given as a limit tells only on which side of the number the result lay.

As to `O=C[C@H](Cc1ccccc1)NC(=O)c1ccnn1-c1ccccc1` [Compound 2, (S)—N-(1-oxo-3-phenylpropan-2-yl)-1-phenyl-1H-pyrazole-5-carboxamide], the IC50 was < 3 µM at Human Calpain 1/NS1 (Column A), < 3 µM on Human Calpain 9/NS1 (Column C), < 3 µM at Human Calpain 2/NS1 (Column B) and 10 to 25 µM in test [1].
For the compound `Cc1cc(C(=O)N[C@@H](Cc2ccccc2)C(=O)C(N)=O)n(-c2nc3ccccc3s2)n1` [Compound 13, (S)—N-(4-amino-3,4-dioxo-1-phenylbutan-2-yl)-1-(benzo[D]thiazol-2-yl)-3-methyl-1H-pyrazole-5-carboxamide], the IC50 is < 3 µM at Human Calpain 1/NS1 (Column A), < 3 µM at Human Calpain 9/NS1 (Column C), < 3 µM on Human Calpain 2/NS1 (Column B) and > 25 µM in test [1].
Consider `Cc1cc(C(=O)N[C@@H](Cc2ccccc2)C(=O)C(N)=O)n(-c2cccc(CNC(=O)c3ccccc3)c2)n1` [Compound 141, (S)—N-(4-amino-3,4-dioxo-1-phenylbutan-2-yl)-1-(3-(benzamidomethyl)phenyl)-3-methyl-1H-pyrazole-5-carboxamide], for which the IC50 at Human Calpain 1/NS1 (Column A) was < 3 µM; at Human Calpain 9/NS1 (Column C), < 3 µM; at Human Calpain 2/NS1 (Column B), < 3 µM; in test [1] it was 10 to 25 µM.
Take `Cc1cc(C(=O)N[C@@H](Cc2ccccc2)C(=O)C(N)=O)n(-c2ccc(CNC(=O)CCc3ccccc3)cc2)n1` [Compound 155, (S)—N-(4-amino-3,4-dioxo-1-phenylbutan-2-yl)-3-methyl-1-(4-((3-phenylpropanamido)methyl)phenyl)-1H-pyrazole-5-carboxamide]: the IC50 on Human Calpain 1/NS1 (Column A) is < 3 µM; at Human Calpain 9/NS1 (Column C), < 3 µM; at Human Calpain 2/NS1 (Column B), < 3 µM; in test [1] it was > 25 µM.
As for `NC(=O)C(=O)[C@H](Cc1ccccc1)NC(=O)c1nccn1-c1ccccc1` [Compound 221, (S)—N-(4-amino-3,4-dioxo-1-phenylbutan-2-yl)-1-phenyl-1H-imidazole-2-carboxamide], the IC50 at Human Calpain 1/NS1 (Column A) was < 3 µM; on Human Calpain 9/NS1 (Column C) it was < 3 µM; on Human Calpain 2/NS1 (Column B), < 3 µM; in test [1] it was > 25 µM.
As to `Cc1cccc2sc(-n3nc(C(=O)N[C@@H](Cc4ccccc4)C(=O)C(N)=O)cc3C)nc12` [Compound 299, (S)—N-(4-amino-3,4-dioxo-1-phenylbutan-2-yl)-5-methyl-1-(4-methylbenzo[d]thiazol-2-yl)-1H-pyrazole-3-carboxamide], the IC50 at Human Calpain 1/NS1 (Column A) is < 3 µM; at Human Calpain 9/NS1 (Column C) it was < 3 µM; on Human Calpain 2/NS1 (Column B), < 3 µM; in test [1], 10 to 25 µM.
Turning to `NC(=O)C(=O)C(Cc1ccccc1)NC(=O)c1cn(C2CC2)nc1-c1ccc(C(F)(F)F)nc1` (centres unmarked) [Compound 414, N-(4-amino-3,4-dioxo-1-phenylbutan-2-yl)-1-cyclopropyl-3-(6-(trifluoromethyl)pyridin-3-yl)-1H-pyrazole-4-carboxamide], the IC50 in test [2] was > 25 µM; at Human Calpain 1/NS1, < 3 µM; at Human Calpain 9/NS1 it was < 3 µM; on Human Calpain 2/NS1, < 3 µM.
Regarding `Cc1cc(C(=O)NC(Cc2ccccc2)C(O)C(N)=O)n(-c2ccnc(Cl)n2)n1` (centres unmarked) [Compound 434, N-(4-amino-3-hydroxy-4-oxo-1-phenylbutan-2-yl)-1-(2-chloropyrimidin-4-yl)-3-methyl-1H-pyrazole-5-carboxamide], the IC50 in test [2] was > 25 µM; at Human Calpain 1/NS1 it was > 10 µM; at Human Calpain 9/NS1, > 10 µM; on Human Calpain 2/NS1, > 10 µM.
As to `O=C(NC1CC1)C(=O)C(Cc1ccccc1)NC(=O)c1cc(Cl)nn1-c1ncccn1` (centres unmarked) [Compound 457, 3-chloro-N-(4-(cyclopropylamino)-3,4-dioxo-1-phenylbutan-2-yl)-1-(pyrimidin-2-yl)-1H-pyrazole-5-carboxamide], the IC50 was < 10 µM in test [2], < 3 µM at Human Calpain 1/NS1, 3 to 10 µM at Human Calpain 9/NS1 and < 3 µM on Human Calpain 2/NS1.
As to `Cc1nc(C(=O)NC(Cc2ccccc2)C(=O)C(N)=O)c(-c2ccccc2)o1` (centres unmarked) [Compound 494, N-(4-amino-3,4-dioxo-1-phenylbutan-2-yl)-2-methyl-5-phenyloxazole-4-carboxamide], the IC50 in test [2] is > 25 µM; at Human Calpain 1/NS1, < 3 µM; on Human Calpain 9/NS1, < 3 µM; on Human Calpain 2/NS1, < 3 µM.
On to `Cn1cc(C(=O)NC(Cc2ccccc2)C(=O)C(N)=O)c(-c2ccsc2)n1` (centres unmarked) [Compound 503, N-(4-amino-3,4-dioxo-1-phenylbutan-2-yl)-1-methyl-3-(thiophen-3-yl)-1H-pyrazole-4-carboxamide], for which the IC50 in test [2] is 10 to 25 µM; on Human Calpain 1/NS1, < 3 µM; on Human Calpain 9/NS1, < 3 µM; at Human Calpain 2/NS1, < 3 µM.
For `COc1ccccc1-c1nn(C)cc1C(=O)NC(Cc1ccccc1)C(=O)C(N)=O` (centres unmarked) [Compound 511, N-(4-amino-3,4-dioxo-1-phenylbutan-2-yl)-3-(2-methoxyphenyl)-1-methyl-1H-pyrazole-4-carboxamide], the IC50 is > 25 µM in test [2], < 3 µM at Human Calpain 1/NS1, < 3 µM at Human Calpain 9/NS1 and < 3 µM on Human Calpain 2/NS1.
Consider `Cn1cc(C(=O)NC(C=O)c2ccccc2C(F)(F)F)c(-c2ccccc2F)n1` (centres unmarked) [Compound 519, 3-(2-Fluorophenyl)-1-METHYL-N-(2-oxo-1-(2-(trifluoromethyl)phenyl)ethyl)-1H-pyrazole-4-carboxamide], for which the IC50 in test [2] was > 25 µM; on Human Calpain 1/NS1 it was > 10 µM; at Human Calpain 9/NS1, > 10 µM; on Human Calpain 2/NS1, > 10 µM.
Take “(S)—N-(4-amino-3,4-dioxo-1-phenylbutan-2-yl)-1-methyl-3-(pyrimidin-4-yl)-1H-pyrazole-4-carboxamide [Compound 193]”: the IC50 in test [2] (Column E) is > 25 µM; on Human Calpain 1/NS1 (Column A) it was 3 to 10 µM; at Human Calpain 9/NS1 (Column C), 3 to 10 µM; on Human Calpain 2/NS1 (Column B) it was < 3 µM.
